Assay results published in the NIST ThermoML archive (doi:10.1016/j.jct.2017.08.004).

Assay: molar heat capacity at constant pressure
Conditions: 101.33 kPa

OC[C@@H](O)[C@@H](O)CO [meso-1,2,3,4-butanetetrol]
molar heat capacity at constant pressure [J/K/mol]
Conditions | Small sample (50 mg) DSC | relaxation calorimetry
264.15 K, Crystal | 146.16 | –
265.15 K, Crystal | 146.7 | –
266.15 K, Crystal | 147.21 | –
267.15 K, Crystal | 147.61 | –
268.15 K, Crystal | 148.1 | –
269.15 K, Crystal | 148.57 | –
270 K, Crystal | – | 150.4
270.15 K, Crystal | 149.15 | –
271.15 K, Crystal | 149.59 | –
272.15 K, Crystal | 150.19 | –
272.18 K, Crystal | – | 151.4
273.15 K, Crystal | 150.91 | 152
274.15 K, Crystal | 151.33 | –
275.15 K, Crystal | 151.84 | –
276.15 K, Crystal | 152.44 | –
277.15 K, Crystal | 152.94 | –
278.15 K, Crystal | 153.58 | –
279.15 K, Crystal | 154.21 | –
280 K, Crystal | – | 155.49
280.15 K, Crystal | 154.62 | –
281.15 K, Crystal | 155.17 | –
282.15 K, Crystal | 155.77 | –
282.18 K, Crystal | – | 157.05
283.15 K, Crystal | 156.24 | –
284.15 K, Crystal | 156.55 | –
285.15 K, Crystal | 157.21 | –
286.15 K, Crystal | 157.62 | –
287.15 K, Crystal | 158.1 | –
288.15 K, Crystal | 158.65 | –
289.15 K, Crystal | 159.25 | –
290 K, Crystal | – | 160.61
290.15 K, Crystal | 159.93 | –
291.15 K, Crystal | 160.48 | –
292.15 K, Crystal | 161.05 | –
292.3 K, Crystal | – | 161.64
293.15 K, Crystal | 161.72 | –
294.15 K, Crystal | 162.21 | –
295.15 K, Crystal | 162.81 | –
296.15 K, Crystal | 163.64 | –
297.15 K, Crystal | 164.09 | –
298.15 K, Crystal | 164.59 | 164.8
299.15 K, Crystal | 165.2 | –
300 K, Crystal | – | 165.76
300.15 K, Crystal | 165.82 | –
301.15 K, Crystal | 166.37 | –
302.15 K, Crystal | 166.97 | –
302.36 K, Crystal | – | 167.01
303.15 K, Crystal | 167.71 | –
304.15 K, Crystal | 168.28 | –
305 K, Crystal | 169.01 | –
305.15 K, Crystal | 169.01 | –
306.15 K, Crystal | 169.71 | –
307.15 K, Crystal | 170.39 | –
308.15 K, Crystal | 171.17 | –
309.15 K, Crystal | 171.87 | –
310 K, Crystal | 172.33 | –
310.15 K, Crystal | 172.47 | –
311.15 K, Crystal | 173.14 | –
312.15 K, Crystal | 173.77 | –
313.15 K, Crystal | 174.6 | –
314.15 K, Crystal | 175.09 | –
315 K, Crystal | 175.5 | –
315.15 K, Crystal | 175.58 | –
316.15 K, Crystal | 176.2 | –
317.15 K, Crystal | 176.88 | –
318.15 K, Crystal | 177.32 | –
319.15 K, Crystal | 177.89 | –
320 K, Crystal | 178.54 | –
320.15 K, Crystal | 178.54 | –
321.15 K, Crystal | 179.14 | –
322.15 K, Crystal | 179.7 | –
323.15 K, Crystal | 180.24 | –
324.15 K, Crystal | 180.85 | –
325 K, Crystal | 181.48 | –
325.15 K, Crystal | 181.48 | –
326.15 K, Crystal | 181.97 | –
327.15 K, Crystal | 182.72 | –
328.15 K, Crystal | 183.34 | –
329.15 K, Crystal | 183.85 | –
330 K, Crystal | 184.34 | –
330.15 K, Crystal | 184.59 | –
331.15 K, Crystal | 185.18 | –
332.15 K, Crystal | 185.74 | –
333.15 K, Crystal | 186.31 | –
334.15 K, Crystal | 186.85 | –
335 K, Crystal | 187.15 | –
335.15 K, Crystal | 187.33 | –
336.15 K, Crystal | 187.85 | –
337.15 K, Crystal | 188.31 | –
338.15 K, Crystal | 188.9 | –
339.15 K, Crystal | 189.49 | –
340 K, Crystal | 189.91 | –
340.15 K, Crystal | 189.94 | –
341.15 K, Crystal | 190.43 | –
342.15 K, Crystal | 191.01 | –
343.15 K, Crystal | 191.56 | –
344.15 K, Crystal | 192.16 | –
345 K, Crystal | 192.66 | –
345.15 K, Crystal | 192.67 | –
346.15 K, Crystal | 193.32 | –
347.15 K, Crystal | 193.86 | –
348.15 K, Crystal | 194.17 | –
349.15 K, Crystal | 194.83 | –
350 K, Crystal | 195.43 | –
350.15 K, Crystal | 195.3 | –
351.15 K, Crystal | 195.72 | –
352.15 K, Crystal | 196.34 | –
353.15 K, Crystal | 197.73 | –
354.15 K, Crystal | 198.08 | –
355 K, Crystal | 198.22 | –
355.15 K, Crystal | 198.55 | –
356.15 K, Crystal | 199.02 | –
357.15 K, Crystal | 199.53 | –
358.15 K, Crystal | 200.16 | –
359.15 K, Crystal | 200.7 | –
360 K, Crystal | 201.07 | –
360.15 K, Crystal | 201.23 | –
361.15 K, Crystal | 201.82 | –
362.15 K, Crystal | 202.33 | –
363.15 K, Crystal | 202.72 | –
364.15 K, Crystal | 203.4 | –
365 K, Crystal | 203.99 | –
365.15 K, Crystal | 203.96 | –
366.15 K, Crystal | 204.56 | –
367.15 K, Crystal | 205.27 | –
368.15 K, Crystal | 205.84 | –
369.15 K, Crystal | 206.45 | –
370 K, Crystal | 207.02 | –
370.15 K, Crystal | 207.1 | –
371.15 K, Crystal | 207.59 | –
372.15 K, Crystal | 208.24 | –
373.15 K, Crystal | 208.9 | –
374.15 K, Crystal | 209.47 | –
375 K, Crystal | 210.16 | –
375.15 K, Crystal | 210.03 | –
412.05 K, Liquid | 355.49 | –
412.15 K, Liquid | 355.53 | –
412.25 K, Liquid | 355.65 | –
412.35 K, Liquid | 355.53 | –
412.45 K, Liquid | 355.34 | –
412.55 K, Liquid | 355.36 | –
412.65 K, Liquid | 355.43 | –
412.75 K, Liquid | 355.39 | –
412.85 K, Liquid | 355.48 | –
412.95 K, Liquid | 355.36 | –
413.05 K, Liquid | 355.34 | –
413.15 K, Liquid | 355.22 | –
414.15 K, Liquid | 354.92 | –
415 K, Liquid | 354.91 | –
415.15 K, Liquid | 354.76 | –
416.15 K, Liquid | 354.79 | –
417.15 K, Liquid | 354.7 | –
418.15 K, Liquid | 354.67 | –
419.15 K, Liquid | 354.7 | –
420 K, Liquid | 354.96 | –
420.15 K, Liquid | 354.81 | –
421.15 K, Liquid | 354.98 | –
422.15 K, Liquid | 354.99 | –
423.15 K, Liquid | 354.99 | –
424.15 K, Liquid | 354.94 | –
425 K, Liquid | 355.01 | –
425.15 K, Liquid | 354.94 | –
426.15 K, Liquid | 354.95 | –
427.15 K, Liquid | 355.23 | –
428.15 K, Liquid | 355.21 | –
429.15 K, Liquid | 355.15 | –
430 K, Liquid | 355.06 | –
430.15 K, Liquid | 355.18 | –
431.15 K, Liquid | 355.17 | –
432.15 K, Liquid | 355.17 | –
433.15 K, Liquid | 355 | –
434.15 K, Liquid | 354.85 | –
435 K, Liquid | 355.11 | –
435.15 K, Liquid | 355.19 | –
